Experimental data: patent publication US10227324B2 (Shanghai Haiyan Pharmaceutical Technology Co., Ltd., priority 2014, dated 2019)
Where two headings read alike, the source gives them in different places.

What was measured:
[1] = biological target: T1, PI3K-β kinase (p110β/p85α) (Homo sapiens, UniProt P42338); assay: Determination of PI3K kinase activity (ADP Transcreener, fluorescence polarization); format: biochemical; details: Table 1; ATP 10 μM; read-out: PI3K-β/nM (IC50 of inhibitory activity against PI3K kinase)
T1 construct: purchased Millipore 14-603
T1 sequence (P42338 whole entry): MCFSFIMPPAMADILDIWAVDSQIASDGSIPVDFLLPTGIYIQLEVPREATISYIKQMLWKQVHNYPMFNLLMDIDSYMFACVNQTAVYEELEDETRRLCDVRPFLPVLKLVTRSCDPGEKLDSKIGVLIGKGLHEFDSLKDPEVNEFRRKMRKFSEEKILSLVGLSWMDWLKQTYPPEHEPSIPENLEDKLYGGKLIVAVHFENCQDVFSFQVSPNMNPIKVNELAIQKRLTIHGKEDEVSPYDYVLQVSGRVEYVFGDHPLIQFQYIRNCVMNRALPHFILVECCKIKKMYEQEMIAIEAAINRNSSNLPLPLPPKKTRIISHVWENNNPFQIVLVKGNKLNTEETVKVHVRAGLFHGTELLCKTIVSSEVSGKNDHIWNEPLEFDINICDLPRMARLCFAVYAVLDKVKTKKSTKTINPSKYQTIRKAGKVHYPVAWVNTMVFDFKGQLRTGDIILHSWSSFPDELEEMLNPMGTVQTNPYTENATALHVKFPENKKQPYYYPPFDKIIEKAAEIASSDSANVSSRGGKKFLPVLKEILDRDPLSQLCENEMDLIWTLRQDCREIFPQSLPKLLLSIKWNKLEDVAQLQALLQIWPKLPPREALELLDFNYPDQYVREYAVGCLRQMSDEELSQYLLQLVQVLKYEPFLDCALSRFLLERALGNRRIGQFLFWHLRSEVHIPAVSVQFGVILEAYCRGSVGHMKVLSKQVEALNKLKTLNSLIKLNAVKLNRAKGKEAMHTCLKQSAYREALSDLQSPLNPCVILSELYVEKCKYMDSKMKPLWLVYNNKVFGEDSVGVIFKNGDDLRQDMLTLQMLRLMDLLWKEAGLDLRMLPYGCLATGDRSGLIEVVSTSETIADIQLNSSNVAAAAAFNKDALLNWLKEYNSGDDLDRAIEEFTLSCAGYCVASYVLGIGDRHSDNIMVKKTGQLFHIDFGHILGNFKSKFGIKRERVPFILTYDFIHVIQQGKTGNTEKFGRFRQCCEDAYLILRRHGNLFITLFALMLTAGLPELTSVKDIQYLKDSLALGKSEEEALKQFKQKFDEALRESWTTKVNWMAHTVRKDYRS
T1 sequence (P27986 whole entry partner): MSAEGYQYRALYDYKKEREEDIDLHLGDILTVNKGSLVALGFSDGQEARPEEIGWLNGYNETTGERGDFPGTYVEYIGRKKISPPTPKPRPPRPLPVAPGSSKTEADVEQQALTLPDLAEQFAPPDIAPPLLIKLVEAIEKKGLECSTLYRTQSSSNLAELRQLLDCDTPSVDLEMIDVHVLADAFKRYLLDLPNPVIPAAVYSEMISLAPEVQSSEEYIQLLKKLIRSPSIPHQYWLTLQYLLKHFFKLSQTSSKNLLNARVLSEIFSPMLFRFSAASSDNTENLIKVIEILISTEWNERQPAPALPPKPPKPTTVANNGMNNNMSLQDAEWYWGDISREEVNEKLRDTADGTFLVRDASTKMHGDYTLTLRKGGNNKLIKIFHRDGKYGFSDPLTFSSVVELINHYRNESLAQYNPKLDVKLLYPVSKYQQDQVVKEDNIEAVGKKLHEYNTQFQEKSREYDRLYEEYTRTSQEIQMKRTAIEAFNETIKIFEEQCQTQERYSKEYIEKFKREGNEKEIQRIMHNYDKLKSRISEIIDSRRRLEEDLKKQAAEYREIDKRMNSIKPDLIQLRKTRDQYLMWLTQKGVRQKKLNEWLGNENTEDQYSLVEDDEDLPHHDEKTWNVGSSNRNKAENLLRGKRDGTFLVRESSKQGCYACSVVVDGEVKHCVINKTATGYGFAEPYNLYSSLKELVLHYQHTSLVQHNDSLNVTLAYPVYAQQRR

[2] = biological target: T2, PI3K-δ kinase (p110δ/p85α) (Homo sapiens, UniProt O00329); assay: as above; format: biochemical; details: Table 1; ATP 10 μM; read-out: PI3K-δ/nM (IC50 of inhibitory activity against PI3K kinase)
T2 construct: purchased Millipore 14-604M
T2 sequence (O00329 whole entry): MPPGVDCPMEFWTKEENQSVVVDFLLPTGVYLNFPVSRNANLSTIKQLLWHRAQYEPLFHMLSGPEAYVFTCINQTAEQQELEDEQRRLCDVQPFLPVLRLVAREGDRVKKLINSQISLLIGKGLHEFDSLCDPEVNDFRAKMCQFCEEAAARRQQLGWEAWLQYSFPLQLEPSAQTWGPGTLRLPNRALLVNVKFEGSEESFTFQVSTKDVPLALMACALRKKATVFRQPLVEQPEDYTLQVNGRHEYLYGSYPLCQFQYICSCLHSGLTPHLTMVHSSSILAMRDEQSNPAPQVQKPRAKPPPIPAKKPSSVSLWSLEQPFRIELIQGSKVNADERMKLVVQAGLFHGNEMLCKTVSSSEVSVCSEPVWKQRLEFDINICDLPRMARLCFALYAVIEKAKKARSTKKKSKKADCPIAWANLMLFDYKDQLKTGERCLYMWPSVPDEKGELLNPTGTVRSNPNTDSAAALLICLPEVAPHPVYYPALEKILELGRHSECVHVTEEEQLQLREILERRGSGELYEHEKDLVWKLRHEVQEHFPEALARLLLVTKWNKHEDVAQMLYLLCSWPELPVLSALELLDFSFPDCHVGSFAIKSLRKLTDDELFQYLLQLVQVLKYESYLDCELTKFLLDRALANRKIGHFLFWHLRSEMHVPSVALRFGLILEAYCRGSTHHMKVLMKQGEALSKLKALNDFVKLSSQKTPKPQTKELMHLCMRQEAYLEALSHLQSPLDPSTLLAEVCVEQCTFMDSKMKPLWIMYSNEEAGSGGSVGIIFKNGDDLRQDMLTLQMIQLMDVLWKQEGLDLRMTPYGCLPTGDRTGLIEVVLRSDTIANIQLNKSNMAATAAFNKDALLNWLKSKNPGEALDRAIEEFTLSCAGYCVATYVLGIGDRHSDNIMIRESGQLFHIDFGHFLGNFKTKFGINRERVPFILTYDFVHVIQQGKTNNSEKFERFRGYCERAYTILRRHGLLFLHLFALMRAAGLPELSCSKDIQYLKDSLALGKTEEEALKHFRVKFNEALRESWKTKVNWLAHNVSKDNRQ
T2 sequence (P27986 whole entry partner): as the sequence (P27986 whole entry partner) above

NIH3T3 cells = assay: Cytotoxicity by MTT assay, NIH3T3; format: cell-based; details: cytotoxicity class, read-out: NIH3T3 cell (IC50/nM)
Experimental: The MTT assay procedure and steps were carried out as well known to those skilled in the art, and all the reagents used in the methods were commercially available.
The cells in logarithmic growth phase were digested with 0.25% EDTA trypsin (Gibco, 25200-056) and resuspended in fresh medium. 90 μL of the cell suspension was inoculated into a 96-well cell culture plate (BD Faclon 353072) with a suitable cell density and cultured at 37° C. under 5% CO2. After the cells adhered, 10 μL of the test compound at different concentrations (0.0046-10 μM, 8 concentration points) was added and incubated for another 72 h. 10 μL of MTT (5 mg/mL PBS solution) (Sigma, M5655) was added to react for 4 h. The absorbance at 492 nm was measured by using Thermo Scientific Multiskan MK3 microplate reader and IC50 was calculated using XLFIT 5.0 software (UK IDBS).

[3] = Metabolism stability assay in liver microsomes; format: in vitro ADME, mouse; details: liver microsomal metabolism in mice
Experimental: Buffer A: 1 L solution of 100 mM potassium dihydrogen phosphate containing 1 mM EDTA (Sigma, V900157-100G) was prepared. Buffer B: 1 L solution of 100 mM dipotassium hydrogen phosphate containing 1 mM EDTA was prepared. Buffer C: 700 mL of buffer B was taken out and titrated with buffer A to pH 7.4.
2.1 10 μl of 10 mM compound to be tested and 10 μl of 10 mM ketanserin were taken out and 190 μl of pure acetonitrile was added to each of them to prepare 500 μM compound to be tested and ketanserin, respectively.
2.2 20 μl (20 mg/mL) of liver microsomes (XENOTECH, H0610) stock solution was added to 513.4 μl of buffer C on wet ice. 0.75 mg/mL liver microsomal solution was obtained.
2.3 1.5 μl of each of the above-mentioned compound to be tested and ketanserin solution was added to 498.5 μl of liver microsomal solution (0.7 5 mg/mL) respectively on wet ice. 1.5 μM mixed solution of compound to be tested and 1.5 μM mixed solution of ketanserin were obtained.
2.4 At the time points 0, 5, 15, 30, 45, and 60 min, 30 μl of the mixed solution of compound to be tested and 30 μl of the mixed solution of ketanserin were dispensed into the reaction plate on wet ice, respectively.
2.5 5 mg reduced coenzyme II (Roche, 10621706001) was weighed and dissolved in 1 mL of buffer C. 6 mM reduced coenzyme II solution was obtained. The reduced coenzyme II solution was dispensed into the reaction plate.
2.6 Imipramine was dissolved to give a 10 mM solution. 10 μl imipramine solution was added to 100 mL of blank acetonitrile to generate the internal reference.
2.7 At 0 min, 135 μL of iced acetonitrile (Merck, UN 1648) containing the internal reference was added to each well and then 15 μL of buffer C was added.
2.8 The reaction plate was placed into a 37° C. water bath incubator for 5 min. In the reaction plate, 15 μL of reduced coenzyme II solution was added to each well to initiate the reaction, and the time keeping was started. At the time points of 5, 15, 30, 45, and 60 min, 135 μL of iced acetonitrile containing the internal reference was added to each well to terminate the reaction.
2.9 The reaction plate was sealed with an aluminum film, placed on a vibration mixer and shaken at 500 rpm for 5 min. The plate was then centrifuged in a centrifuge at 3750 rp for 15 min.
2.10 The sample was diluted with pure water in accordance with the ratio of 1:1 and detected by LC/MS.
Half-life: 0.693/K (the slope by plotting based on the incubation time and logarithm of the concentration value)
Clearance ratio: (0.693/half-life)*(1/protein concentration (0.5 mg/mL))*(proportional factor)
Wherein, the K value and the proportional factor were calculated by those skilled in the art according to the methods described in the prior art and contained in the instructions of the liver microsome product.

PI3K-γ kinase (p110γ) = biological target: T3, PI3K-γ kinase (p110γ) (Homo sapiens, UniProt P48736); assay: Determination of PI3K kinase activity (ADP Transcreener, fluorescence polarization); format: biochemical; details: Table 1; ATP 10 μM; read-out: PI3K-γ/nM (IC50 of inhibitory activity against PI3K kinase)
T3 construct: purchased Invitrogen PV4786
T3 sequence (P48736 whole entry): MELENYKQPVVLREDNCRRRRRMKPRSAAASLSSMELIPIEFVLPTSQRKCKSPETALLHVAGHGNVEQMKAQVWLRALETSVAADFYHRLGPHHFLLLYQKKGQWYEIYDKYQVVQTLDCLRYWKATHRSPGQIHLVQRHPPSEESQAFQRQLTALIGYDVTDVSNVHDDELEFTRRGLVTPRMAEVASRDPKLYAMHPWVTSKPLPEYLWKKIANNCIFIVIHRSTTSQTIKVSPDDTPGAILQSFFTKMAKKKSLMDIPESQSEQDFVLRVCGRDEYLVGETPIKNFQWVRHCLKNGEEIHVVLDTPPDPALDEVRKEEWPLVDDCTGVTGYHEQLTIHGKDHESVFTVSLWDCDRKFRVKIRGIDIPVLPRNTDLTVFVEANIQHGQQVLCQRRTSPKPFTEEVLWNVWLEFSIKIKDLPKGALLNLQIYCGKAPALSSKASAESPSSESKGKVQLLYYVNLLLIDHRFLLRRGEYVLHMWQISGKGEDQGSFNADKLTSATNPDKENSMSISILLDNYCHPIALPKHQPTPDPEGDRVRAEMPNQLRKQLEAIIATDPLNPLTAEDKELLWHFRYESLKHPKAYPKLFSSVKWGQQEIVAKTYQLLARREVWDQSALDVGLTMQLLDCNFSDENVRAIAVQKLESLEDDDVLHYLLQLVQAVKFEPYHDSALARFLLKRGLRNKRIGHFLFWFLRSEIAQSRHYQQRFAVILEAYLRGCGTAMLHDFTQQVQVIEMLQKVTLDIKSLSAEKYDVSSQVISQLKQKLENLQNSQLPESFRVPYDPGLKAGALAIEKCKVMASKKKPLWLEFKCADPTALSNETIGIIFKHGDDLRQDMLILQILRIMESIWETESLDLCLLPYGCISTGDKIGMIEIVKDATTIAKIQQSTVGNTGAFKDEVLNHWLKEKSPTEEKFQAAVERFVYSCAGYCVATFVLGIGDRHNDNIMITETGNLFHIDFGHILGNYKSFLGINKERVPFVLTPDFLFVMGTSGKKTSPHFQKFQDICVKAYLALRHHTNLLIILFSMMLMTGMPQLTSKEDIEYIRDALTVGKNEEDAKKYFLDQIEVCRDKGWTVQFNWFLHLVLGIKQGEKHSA
Summary of the method: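 Each 25 μL reaction held PI3K enzyme (p110α/p85α 3 ng, p110β/p85α 60 ng, p110δ/p85α 90 ng, or p110γ 100 ng), 10 μM ATP, 30 μM PIP2:PS and 2% DMSO, incubated 1 h at 25 °C. Compounds were tested in duplicate across a 3-fold series, 0.00046–1 μM as prepared. ADP was detected by Transcreener fluorescence polarization, quantified against an ADP/ATP standard curve, and IC50 fitted.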

[4] = biological target: T4, PI3K-α kinase (p110α/p85α) (Homo sapiens, UniProt P42336); assay: as above; format: biochemical; details: ATP 10 μM
T4 construct: purchased Invitrogen PV4788
T4 sequence (P42336 whole entry): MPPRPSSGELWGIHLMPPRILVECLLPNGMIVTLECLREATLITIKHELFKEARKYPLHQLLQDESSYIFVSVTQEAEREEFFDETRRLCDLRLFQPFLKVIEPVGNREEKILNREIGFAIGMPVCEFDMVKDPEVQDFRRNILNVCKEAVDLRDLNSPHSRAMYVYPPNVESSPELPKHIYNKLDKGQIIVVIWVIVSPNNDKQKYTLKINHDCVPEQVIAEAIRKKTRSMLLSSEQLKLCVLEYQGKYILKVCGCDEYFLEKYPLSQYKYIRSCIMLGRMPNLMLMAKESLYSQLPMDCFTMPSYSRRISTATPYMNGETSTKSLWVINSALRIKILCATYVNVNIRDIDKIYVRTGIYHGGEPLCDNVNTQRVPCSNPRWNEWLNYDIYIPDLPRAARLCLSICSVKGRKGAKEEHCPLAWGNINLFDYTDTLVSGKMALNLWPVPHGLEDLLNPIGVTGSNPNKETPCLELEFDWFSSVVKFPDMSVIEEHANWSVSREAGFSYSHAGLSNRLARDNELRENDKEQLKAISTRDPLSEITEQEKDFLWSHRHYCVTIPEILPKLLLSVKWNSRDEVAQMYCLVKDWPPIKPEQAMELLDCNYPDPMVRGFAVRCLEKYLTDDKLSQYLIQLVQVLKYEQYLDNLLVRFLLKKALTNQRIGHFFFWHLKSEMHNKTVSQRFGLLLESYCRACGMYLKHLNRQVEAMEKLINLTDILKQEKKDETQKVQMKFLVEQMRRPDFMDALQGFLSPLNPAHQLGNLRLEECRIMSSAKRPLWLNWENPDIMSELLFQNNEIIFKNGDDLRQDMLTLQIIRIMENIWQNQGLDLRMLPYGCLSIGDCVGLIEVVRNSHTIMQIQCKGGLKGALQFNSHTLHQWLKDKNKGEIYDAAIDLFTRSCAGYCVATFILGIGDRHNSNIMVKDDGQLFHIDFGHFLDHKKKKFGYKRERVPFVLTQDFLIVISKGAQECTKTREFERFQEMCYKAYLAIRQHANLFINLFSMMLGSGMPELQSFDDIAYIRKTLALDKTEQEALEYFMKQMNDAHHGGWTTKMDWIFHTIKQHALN
T4 sequence (P27986 whole entry partner): as the sequence (P27986 whole entry partner) above

[5] = system: Akt phosphorylation (Ser473-p-Akt) in PC-3 cells; assay: Inhibition of p-Akt phosphorylation level in PC-3 cells (cell level fluorescence imaging); format: cell-based; details: Akt phosphorylation in PC-3 cells, 2 hours incubation; read-out: PC-3 cell (IC50/nM)
Experimental: This experiment was performed by cell level fluorescence image processing method.
Triton X-100: 10% aqueous Triton X-100 solution (Sigma T8787-100 mL) was prepared, stored at 4° C. and diluted by 1:100 to give 0.1% Triton X-100 aqueous solution for use in the experiment.
Prodium Iodide (PI): 1 mg/mL (1.5 mM) PI (Sigma P4170) storage solution was prepared with PBS and stored at −25° C. in the dark. For use, the PI storage solution was diluted with PBS by 1:1000 to give a 1.5 μM solution and used in dark.
PC-3 cells in logarithmic growth phase were digested with 0.25% EDTA trypsin. 3000 cells/90 μL were seeded in a 96-well plate (BD 356692) and cultured at 37° C. and 5% CO2. After the cells adhered, 10 μL of the compound to be tested which was gradiently diluted 3 times (0.0046 to 10 μM, 8 concentration points, in duplicate) was added and incubated for 2 hours, followed by addition of 100 μL of 4% paraformaldehyde (DINGGUO AR-0211) and incubated at room temperature for 45 minutes. Then 100 μL of 0.1% Triton X-100 solution was added and incubated for another 30 minutes.
Triton X-100 solution was removed and the cells were rinsed with 200 μl of PBS twice (300 rpm vibration for 1 minute). The blocking solution (1% BSA solution in PBS) (Genview FA016-100G) was added and incubated at room temperature for 2 hours. The plate was rinsed with PBS once (300 rpm, 1 min) and 30 μL of Ser473-p-Akt antibody (cell signaling 4060L) diluted with 0.1% BSA was added and incubated overnight at 4° C. Ser473-p-Akt antibody was removed and the plate was rinsed with PBS twice (300 rpm, 1 minute). 35 μL of Alexa Flour 488 donkey anti-rabbit IgG (Invitrogen A21206) was added and incubated at room temperature for 1.5 hours. The plate was rinsed with PBS twice (300 rpm, 1 minute) and 35 μL of 1.5 μM PI was added and incubated at room temperature for 0.5 h. The fluorescence intensity was measured with Acumen eX3 (TTP LabTech).
10 μM BEZ235 (Selleck S1009) treatment group was negative control and DMSO treatment group was positive control. Inhibition ratio %=[1−(the mean value of the fluorescence intensity of the compound to be tested−the mean value of the fluorescence intensity of the negative control group)/(the mean value of the fluorescence intensity of the positive control group−the mean value of the fluorescence intensity of the negative control group)]×100%

T47D cells = assay: Cell inhibitory activity detected by MTT assay, T47D; format: cell-based; details: 72 h, read-out: T47D cell (IC50/nM), cell growth inhibition

Row | IC50 [1] | IC50 [2] | Clearance ratio (mL/min/kg) mouse [3] | IC50 (PI3K-γ kinase (p110γ)) | IC50 ([4]; Table 2, read-out: PI3K-α/nM (IC50 of inhibitory activity against PI3K-α kinase)) | IC50 [5] | IC50 (T47D cells) | IC50 ([4]; Table 1, read-out: PI3K-α/nM (IC50 of inhibitory activity against PI3K kinase)) | Structure (SMILES) | IC50 (NIH3T3 cells; Mus musculus, NIH3T3, 72 h) | IC50 (NIH3T3 cells; 72 h)
1 | 832 nM | 214 nM | 6337.31 mL/min/kg | 843 nM |  |  |  |  | CC(C)(c1cc(-c2cnc(N)cc2C(F)(F)F)nc(N2CCOCC2)n1)S(=O)(=O)c1ccccc1 [Compound S-21] | 1000 to 3000 nM | 
2 |  |  |  |  | 39 nM | 39 nM | 449 nM |  | CC(C)(O)c1cc(-c2cnc(N)cc2C(F)(F)F)nc(N2CCOCC2)n1 [Compound S-50, 2-(6-(6-amino-4-(trifluoromethyl)pyridin-3-yl)-2-morpholin-4-yl)propan-2-ol] |  | 1000 to 3000 nM
3 | 721 nM | 235 nM | 7163.43 mL/min/kg | 813 nM |  |  |  | 37 nM | Nc1cc(C(F)(F)F)c(-c2cc(C3(S(=O)(=O)c4ccc(F)cc4)CC3)nc(N3CCOCC3)n2)cn1 [Compound S-59] | 1000 to 3000 nM | 
